Experimental data reported in the NIST ThermoML archive (doi:10.1021/acs.jced.9b00171).
Numbers after ± are expanded uncertainties.

Assays:
[1] = refractive index (Na D-line) (dimensionless); settings: 101.3 kPa, Liquid, Standard Abbe refractometry
[2] = 101.3 kPa, Liquid, Oscillating disk viscometry

SMILES | refractive index ([1]; 293.15 K) | refractive index ([1]; 298.15 K) | refractive index ([1]; 303.15 K) | refractive index ([1]; 308.15 K) | refractive index ([1]; 313.15 K) | refractive index ([1]; 318.15 K) | refractive index ([1]; 323.15 K) | refractive index ([1]; 328.15 K) | refractive index ([1]; 333.15 K) | viscosity ([2]; 293.15 K) [mPa·s] | viscosity ([2]; 298.15 K) [mPa·s] | viscosity ([2]; 303.15 K) [mPa·s] | viscosity ([2]; 308.15 K) [mPa·s] | viscosity ([2]; 313.15 K) [mPa·s] | viscosity ([2]; 318.15 K) [mPa·s] | viscosity ([2]; 323.15 K) [mPa·s] | viscosity ([2]; 328.15 K) [mPa·s] | viscosity ([2]; 333.15 K) [mPa·s]
NCCNCCO [N-(2-aminoethyl)ethanolamine] | 1.4856 ± 0.0021 | 1.4842 ± 0.0021 | 1.4827 ± 0.0022 | 1.481 ± 0.0022 | 1.4792 ± 0.0022 | 1.4772 ± 0.0022 | 1.475 ± 0.002 | 1.4727 ± 0.0023 | 1.4702 ± 0.0023 | 153.62 ± 41 | 99.27 ± 27 | 71.31 ± 17 | 52.94 ± 13 | 37.67 ± 9.1 | 28.23 ± 6.5 | 21.55 ± 4.9 | 16.43 ± 3.8 | 12.74 ± 3
CNCCO [2-(methylamino)ethanol] | 1.4386 ± 0.0022 | 1.437 ± 0.0022 | 1.4352 ± 0.0022 | 1.4331 ± 0.0022 | 1.431 ± 0.0022 | 1.4288 ± 0.0022 | 1.4265 ± 0.0023 | 1.4242 ± 0.0023 | 1.4218 ± 0.0023 | 13.12 ± 2.9 | 10.28 ± 2.3 | 8.42 ± 1.8 | 6.78 ± 1.5 | 5.54 ± 1.2 | 4.61 ± 0.99 | 3.82 ± 0.82 | 3.13 ± 0.69 | 2.42 ± 0.56
